According to PubChem BioAssay (NCI):
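Dose response: 5 concentrations. Exposure: 48 h. Format: 96-well plates. Endpoint: linear interpolation; highest concentration if not reached. Abbreviation: GI50, concentration required for 50% inhibition of growth. TGI: total growth inhibition.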

Columns and labels:
Assay in all cases: NCI tumour cell line growth inhibition, 48 h
[1] = test system: 786-0 renal
[2] = test system: A498 renal
[3] = test system: A549 NSCLC
[4] = test system: BT-549 breast
[5] = test system: CAKI-1 renal
[6] = test system: CCRF-CEM leukemia
[7] = test system: COLO 205 colon
[8] = test system: DU-145 prostate
[9] = test system: EKVX NSCLC
[10] = test system: HCC-2998 colon
[11] = test system: HCT-116 colon
[12] = test system: HL-60(TB) leukemia
[13] = test system: HOP-62 NSCLC
[14] = test system: HOP-92 NSCLC
[15] = test system: HS 578T breast
[16] = test system: HT29 colon
[17] = test system: K-562 leukemia
[18] = test system: KM12 colon
[19] = test system: M14 melanoma
[20] = test system: MALME-3M melanoma
[21] = test system: MCF7 breast
[22] = test system: MDA-MB-231 breast
[23] = test system: MDA-MB-435
[24] = test system: MOLT-4 leukemia
[25] = test system: NCI-H226 lung
[26] = test system: NCI-H23 lung
[27] = test system: NCI-H460 lung
[28] = test system: NCI-H522 lung
[29] = test system: NCI/ADR-RES ovarian
[30] = test system: OVCAR-3 ovarian
[31] = test system: OVCAR-4 ovarian
[32] = test system: OVCAR-5 ovarian
[33] = test system: OVCAR-8 ovarian
[34] = test system: PC-3 prostate
[35] = test system: RPMI-8226 leukemia
[36] = test system: SF-268 CNS
[37] = test system: SF-295 CNS
[38] = test system: SF-539 CNS
[39] = test system: SK-MEL-2 melanoma
[40] = test system: SK-MEL-28 melanoma
[41] = test system: SK-MEL-5 melanoma
[42] = test system: SK-OV-3 ovarian
[43] = test system: SN12C renal
[44] = test system: SNB-19 CNS
[45] = test system: SNB-75 CNS
[46] = test system: SW-620 colon
[47] = test system: T-47D breast
[48] = test system: TK-10 renal
[49] = test system: UACC-257 melanoma
[50] = test system: UACC-62 melanoma
[51] = test system: UO-31 renal
[52] = test system: ACHN renal
[53] = test system: RXF 393 renal
[54] = test system: U251 CNS

`Cc1nc(NC(=S)Nc2ccc(F)cc2)sc1C(=O)NNC(=S)Nc1ccc(F)cc1` showed a GI50 [1] of 21.9 µM, a TGI [1] of 89.1 µM and a GI50 [2] of 2.4 µM. The TGI [2] was 15.4 µM, the GI50 [3] was 5.29 µM and the TGI [3] was 45.5 µM. It also gave a GI50 [4] of 14.9 µM, a TGI [4] of 45.2 µM and a GI50 [5] of 11.4 µM. It also gave a TGI [5] of 44.9 µM, a GI50 [6] of 2.56 µM and a TGI [6] of 15.7 µM. It also gave a GI50 [7] of 7.11 µM, a TGI [7] of 20 µM and a GI50 [8] of 5.53 µM. For the same molecule, the TGI [8] was 22.3 µM, the GI50 [9] was 4.61 µM and the TGI [9] was > 100 µM. For the same molecule, the GI50 [10] was 6.6 µM, the TGI [10] was 22.5 µM and the GI50 [11] was 7.93 µM. The TGI [11] was > 100 µM, the GI50 [12] was 3.68 µM and the TGI [12] was 27.8 µM. It also gave a GI50 [13] of 26.5 µM, a TGI [13] of 82.5 µM and a GI50 [14] of 1.49 µM. The TGI [14] was 7.25 µM, the GI50 [15] was 11.4 µM and the TGI [15] was 38 µM. For the same molecule, the GI50 [16] was 8.58 µM, the TGI [16] was 25.3 µM and the GI50 [17] was 3.91 µM. For the same molecule, the TGI [17] was > 100 µM, the GI50 [18] was 3.11 µM and the TGI [18] was 13.4 µM. For the same molecule, the GI50 [19] was 20.2 µM, the TGI [19] was > 100 µM and the GI50 [20] was 13.1 µM. The TGI [20] was 35.5 µM, the GI50 [21] was 3.72 µM and the TGI [21] was 32.7 µM. For the same molecule, the GI50 [22] was 10.4 µM, the TGI [22] was 25.1 µM and the GI50 [23] was 7.34 µM. The TGI [23] was 55.2 µM, the GI50 [24] was 3.33 µM and the TGI [24] was > 100 µM. For the same molecule, the GI50 [25] was 14.1 µM, the TGI [25] was 57.8 µM and the GI50 [26] was 2.78 µM. For the same molecule, the TGI [26] was 9.73 µM, the GI50 [27] was 3.85 µM and the TGI [27] was 16.2 µM. For the same molecule, the GI50 [28] was 21.1 µM, the TGI [28] was > 100 µM and the GI50 [29] was 3.62 µM. The TGI [29] was 18.2 µM, the GI50 [30] was 2.55 µM and the TGI [30] was 10.1 µM. For the same molecule, the GI50 [31] was 5.55 µM, the TGI [31] was 60 µM and the GI50 [32] was 16.2 µM. The TGI [32] was 62.1 µM, the GI50 [33] was 16 µM and the TGI [33] was > 100 µM. For the same molecule, the GI50 [34] was 4.38 µM, the TGI [34] was 80.7 µM and the GI50 [35] was 2.2 µM. The TGI [35] was 6.9 µM, the GI50 [36] was 10.7 µM and the TGI [36] was 28.5 µM. For the same molecule, the GI50 [37] was 3.96 µM, the TGI [37] was 21.1 µM and the GI50 [38] was 13 µM. The TGI [38] was 26.2 µM, the GI50 [39] was 19.4 µM and the TGI [39] was 60.3 µM. For the same molecule, the GI50 [40] was 8.65 µM, the TGI [40] was 28.3 µM and the GI50 [41] was 3.5 µM. The TGI [41] was 15.2 µM, the GI50 [42] was 15.7 µM and the TGI [42] was 61.6 µM. It also gave a GI50 [43] of 10.2 µM, a TGI [43] of 32.1 µM and a GI50 [44] of 8.39 µM. The TGI [44] was 66.5 µM, the GI50 [45] was 15.3 µM and the TGI [45] was 54.7 µM. It also gave a GI50 [46] of 10.6 µM, a TGI [46] of 25.2 µM and a GI50 [47] of 2.59 µM. The TGI [47] was 20.7 µM, the GI50 [48] was 6.93 µM and the TGI [48] was 48.1 µM. For the same molecule, the GI50 [49] was 10.1 µM, the TGI [49] was 36.8 µM and the GI50 [50] was 3.01 µM. For the same molecule, the TGI [50] was 18.9 µM, the GI50 [51] was 5.28 µM and the TGI [51] was 21 µM.

For `Cl.Fc1c[c-]c(-c2ccccn2)c(F)c1.[Pt].c1ccc([PH+](CC[PH+](c2ccccc2)c2ccccc2)c2ccccc2)cc1`, the GI50 [1] was 0.231 µM, the TGI [1] was 1.06 µM and the GI50 [2] was 0.103 µM. The TGI [2] was 0.478 µM, the GI50 [52] was 0.271 µM and the TGI [52] was 0.993 µM. The GI50 [4] was 0.0867 µM, the TGI [4] was 0.978 µM and the GI50 [5] was 0.246 µM. It also gave a TGI [5] of 0.948 µM, a GI50 [8] of 0.0656 µM and a TGI [8] of 1.2 µM. The GI50 [12] was 0.0563 µM, the TGI [12] was 0.319 µM and the GI50 [13] was 0.186 µM. It also gave a TGI [13] of 0.688 µM, a GI50 [14] of 0.121 µM and a TGI [14] of 0.422 µM. It also gave a GI50 [17] of 0.0369 µM, a GI50 [18] of 0.0772 µM and a TGI [18] of 0.277 µM. The GI50 [19] was 0.0741 µM, the TGI [19] was 1.22 µM and the GI50 [20] was 0.061 µM. It also gave a TGI [20] of 0.409 µM, a GI50 [21] of 0.0625 µM and a TGI [21] of 1.1 µM. It also gave a GI50 [22] of 0.178 µM, a TGI [22] of 0.496 µM and a GI50 [23] of 0.127 µM. For the same molecule, the TGI [23] was 0.51 µM, the GI50 [24] was 0.291 µM and the TGI [24] was 1.29 µM. For the same molecule, the GI50 [25] was 0.184 µM, the TGI [25] was 1.13 µM and the GI50 [29] was 1.01 µM. The TGI [29] was 4.18 µM, the GI50 [30] was 0.0827 µM and the TGI [30] was 0.414 µM. It also gave a GI50 [31] of 0.187 µM, a TGI [31] of 1.01 µM and a GI50 [32] of 0.178 µM. It also gave a TGI [32] of 0.919 µM, a GI50 [34] of 0.0514 µM and a TGI [34] of 1.09 µM. The GI50 [35] was 0.0341 µM, the TGI [35] was 0.249 µM and the GI50 [53] was 0.214 µM. It also gave a TGI [53] of 0.997 µM, a GI50 [37] of 0.0474 µM and a TGI [37] of 0.328 µM. It also gave a GI50 [38] of 0.164 µM, a TGI [38] of 0.976 µM and a GI50 [39] of 0.233 µM. It also gave a TGI [39] of 0.756 µM, a GI50 [40] of 0.167 µM and a TGI [40] of 1.4 µM. For the same molecule, the GI50 [41] was 0.13 µM, the TGI [41] was 0.261 µM and the GI50 [42] was 0.184 µM. The TGI [42] was 0.754 µM, the GI50 [44] was 0.0656 µM and the TGI [44] was 1.26 µM. It also gave a GI50 [45] of 0.0234 µM, a TGI [45] of 0.534 µM and a GI50 [47] of 0.0912 µM. The TGI [47] was 1.39 µM, the GI50 [48] was 0.157 µM and the TGI [48] was 1.13 µM. For the same molecule, the GI50 [54] was 0.0319 µM, the TGI [54] was 1.13 µM and the GI50 [49] was 0.165 µM. For the same molecule, the TGI [49] was 0.975 µM, the GI50 [50] was 0.128 µM and the TGI [50] was 0.364 µM. The GI50 [51] was 0.254 µM and the TGI [51] was 0.93 µM.
